Results as given in ChEMBL document CHEMBL4616710, “Discovery of a Potent Anticancer Agent PVHD303 with in Vivo Activity” (ACS Med Chem Lett, 2020).

Tests used:
A549 [1] = assay: Antiproliferative activity against human A549 cells assessed as cell growth inhibition incubated for 72 hrs by CellTiter96 Aqueous one solution cell proliferation assay; assay type: functional, cell-based; conditions: A549, 72 h
HeLa [2] = assay: Antimitotic activity against human HeLa cells assessed as proportion of mitotic cells at 4 nM measured after 16 to 18 hrs by DAPI-staining based fluorescence microscopy analysis relative to control; assay type: functional
HeLa [3] = assay: Antimitotic activity against human HeLa cells assessed as proportion of mitotic cells at 8 nM measured after 16 to 18 hrs by DAPI-staining based fluorescence microscopy analysis relative to control; assay type: functional
HeLa [4] = assay: Antimitotic activity against human HeLa cells assessed as proportion of mitotic cells at 12 nM measured after 16 to 18 hrs by DAPI-staining based fluorescence microscopy analysis relative to control; assay type: functional
HeLa [5] = assay: Antimitotic activity against human HeLa cells assessed as proportion of cells with bipolar spindles at 8 nM measured after 16 to 18 hrs by DAPI-staining based fluorescence microscopy analysis relative to control; assay type: functional
HeLa [6] = assay: Antimitotic activity against human HeLa cells assessed as proportion of mitotic cells at 16 nM measured after 16 to 18 hrs by DAPI-staining based fluorescence microscopy analysis relative to control; assay type: functional
HeLa [7] = assay: Antimitotic activity against human HeLa cells assessed as proportion of cells with diffuse alpha-tubulin at 8 nM measured after 16 to 18 hrs by DAPI-staining based fluorescence microscopy analysis relative to control; assay type: functional
HeLa [8] = assay: Antimitotic activity against human HeLa cells assessed as proportion of cells with irregular spindles at 16 nM measured after 16 to 18 hrs by DAPI-staining based fluorescence microscopy analysis relative to control; assay type: functional
HeLa [9] = assay: (§1) Antimitotic activity against human HeLa cells assessed as proportion of cells with microtubule disruption around the condensed chromosomes and unseparated centrosome at 12 nM measured after 16 to 18 hrs by anti-alpha-tubulin/anti-gamma-tubulin antibodies based immunostaining/DAPI-staining based fluorescence microscopy analysis relative to control; assay type: functional
HeLa [10] = assay: Antimitotic activity against human HeLa cells assessed as proportion of cells with diffuse alpha-tubulin at 12 nM measured after 16 to 18 hrs by DAPI-staining based fluorescence microscopy analysis relative to control; assay type: functional
HeLa [11] = assay: Antimitotic activity against human HeLa cells assessed as proportion of cells with diffuse alpha-tubulin at 16 nM measured after 16 to 18 hrs by DAPI-staining based fluorescence microscopy analysis relative to control; assay type: functional
HeLa [12] = assay: Antimitotic activity against human HeLa cells assessed as proportion of cells with bipolar spindles at 16 nM measured after 16 to 18 hrs by DAPI-staining based fluorescence microscopy analysis relative to control; assay type: functional
HeLa [13] = assay: Antimitotic activity against human HeLa cells assessed as proportion of cells with diffuse alpha-tubulin at 4 nM measured after 16 to 18 hrs by DAPI-staining based fluorescence microscopy analysis relative to control; assay type: functional
HCT-116 [14] = assay: Antitumor activity against human HCT116 cells xenografted in BALB/c nude mouse assessed as tumor growth inhibition at 10 mg/kg, iv qd administered on day 1,3,5,8,10,12,15,17,19 and measured on day 22 by caliper method relative to control; assay type: functional; conditions: HCT-116, iv, read-out: TGI
HeLa [15] = assay: Antimitotic activity against human HeLa cells assessed as proportion of cells with bipolar spindles at 12 nM measured after 16 to 18 hrs by DAPI-staining based fluorescence microscopy analysis relative to control; assay type: functional
HCT-116 [16] = assay: Antitumor activity against human HCT116 cells xenografted in iv dosed BALB/c nude mouse assessed as tumor growth inhibition administered once daily on day 1,3,5,8,10,12,15,17,19 and measured on day 22 by caliper method; assay type: functional, organism-based
HeLa [17] = assay: Antimitotic activity against human HeLa cells assessed as proportion of cells with irregular spindles at 4 nM measured after 16 to 18 hrs by DAPI-staining based fluorescence microscopy analysis relative to control; assay type: functional
HeLa [18] = assay: as §1, with “16” for “12”; assay type: functional
HeLa [19] = assay: Antimitotic activity against human HeLa cells assessed as proportion of cells with irregular spindles at 12 nM measured after 16 to 18 hrs by DAPI-staining based fluorescence microscopy analysis relative to control; assay type: functional
HCT-116 [20] = assay: Antitumor activity against human HCT116 cells xenografted in BALB/c nude mouse assessed as tumor growth inhibition at 20 mg/kg, iv qd administered on day 1,3,5,8,10,12,15,17,19 and measured on day 22 by caliper method relative to control; assay type: functional; conditions: HCT-116, iv, read-out: TGI
HeLa [21] = assay: Antimitotic activity against human HeLa cells assessed as proportion of cells with irregular spindles at 8 nM measured after 16 to 18 hrs by DAPI-staining based fluorescence microscopy analysis relative to control; assay type: functional
HeLa [22] = assay: Antimitotic activity against human HeLa cells assessed as proportion of cells with bipolar spindles at 4 nM measured after 16 to 18 hrs by DAPI-staining based fluorescence microscopy analysis relative to control; assay type: functional
HCT-116 [23] = assay: Antiproliferative activity against human HCT116 cells assessed as cell growth inhibition incubated for 72 hrs by CellTiter96 Aqueous one solution cell proliferation assay; assay type: functional, cell-based; conditions: HCT-116, 72 h
HeLa [24] = assay: as §1, with “8” for “12”; assay type: functional
HeLa [25] = assay: as §1, with “4” for “12”; assay type: functional
A549 [26] = assay: Antiproliferative activity against human A549 cells assessed as cell growth inhibition; assay type: functional, cell-based

## COc1ccc(C(C)(O)c2nc(-c3ccc4c(c3)OCO4)nc3ccccc23)cc1 (centres undefined)
A549 [1]
  IC50: 1170 nM

## COc1ccc(C(C)(O)c2ncnc3c(F)cccc23)cc1 (centres undefined)
A549 [1]
  IC50: 430 nM

## COc1ccc(C(C)(O)c2ncnc3c(C)cccc23)cc1 (centres undefined)
A549 [1]
  IC50: 1560 nM

## COc1ccc(C(C)(O)c2ncnc3cc(OC)ccc23)cc1 (centres undefined)
A549 [1]
  IC50: > 25000 nM

## COc1ccc(C(C)(O)c2ncnc3ccc(C)cc23)cc1 (centres undefined)
A549 [1]
  IC50: 1100 nM

## COc1ccc(C(C)(O)c2ncnc3cccc(F)c23)cc1 (centres undefined)
A549 [1]
  IC50: 12000 nM

## COc1ccc(C(C)(O)c2nc(N3CCC3)nc3ccccc23)cc1 (centres undefined)
A549 [1]
  IC50: 1100 nM

## COc1ccc(C(C)(O)c2ncnc3ccc(F)cc23)cc1 (centres undefined)
A549 [1]
  IC50: 350 nM

## COc1ccc(C(C)(O)c2nc(N3CCCC3)nc3ccccc23)cc1 (centres undefined)
A549 [1]
  IC50: 1260 nM

## COc1ccc(C(C)(O)c2ncnc3cc(Cl)ccc23)cc1 (centres undefined)
A549 [1]
  IC50: 870 nM

## COc1ccc(C(C)(O)c2ncnc3ccc(Cl)cc23)cc1 (centres undefined)
A549 [1]
  IC50: 80 nM

## COc1ccc(C(C)(O)c2ncnc3c(Cl)cccc23)cc1 (centres undefined)
A549 [1]
  IC50: 240 nM

## COc1ccc(C(C)(O)c2nc(N3CCC(F)(F)CC3)nc3ccccc23)cc1 (centres undefined)
A549 [1]
  IC50: 4910 nM

## COc1ccc(C(C)(O)c2ncnc3cc(F)ccc23)cc1 (centres undefined)
A549 [1]
  IC50: 4670 nM

## COc1ccc(C(C)(O)c2nc(C3CC3)nc3ccccc23)cc1 (centres undefined)
A549 [1]
  IC50: 637 nM

## COc1ccc(C(C)(O)c2nc(N3CC=CC3)nc3ccccc23)cc1 (centres undefined)
A549 [1]
  IC50: 220 nM

## COC(=O)Nc1nc2cc(C(=O)c3cccs3)ccc2[nH]1 [NOCODAZOLE]
A549 [1]
  IC50: 272 nM

## COc1ccc(C(C)(O)c2nc(N3CC3)nc3ccccc23)cc1 (centres undefined)
A549 [1]
  IC50: 220 nM

## COc1ccc(C(C)(O)c2nc(N3CCC(OC)CC3)nc3ccccc23)cc1 (centres undefined)
A549 [1]
  IC50: 1220 nM

## COc1ccc(C(C)(O)c2nc(-c3ccc(Cl)s3)nc3ccccc23)cc1 (centres undefined)
A549 [1]
  IC50: 895 nM

## COc1ccc(C(C)(O)c2nc(N3CCC(O)CC3)nc3ccccc23)cc1 (centres undefined)
A549 [1]
  IC50: 9320 nM

## COc1ccc(C(C)(O)c2nc(-c3ccccc3O)nc3ccccc23)cc1 (centres undefined)
A549 [1]
  IC50: 223 nM

## COc1ccc(C(C)(O)c2nc(-c3ccco3)nc3ccccc23)cc1 (centres undefined)
A549 [1]
  IC50: 36 nM

## COc1ccc(C(C)(O)c2nc(N)nc3ccccc23)cc1 (centres undefined)
A549 [1]
  IC50: 50 nM

## COc1ccc(C(C)(O)c2nc(N3CCSCC3)nc3ccccc23)cc1 (centres undefined)
A549 [1]
  IC50: 2440 nM

## COc1ccc(C(C)(O)c2nc(-c3ccc(F)cc3)nc3ccccc23)cc1 (centres undefined)
A549 [1]
  IC50: 48 nM

## COc1ccc(C(C)(O)c2nc(N3CC=CCC3)nc3ccccc23)cc1 (centres undefined)
A549 [1]
  IC50: 710 nM

## CC[C@]1(O)C[C@@H]2CN(CCc3c([nH]c4ccccc34)[C@@](C(=O)OC)(c3cc4c(cc3OC)N(C)[C@H]3[C@@](O)(C(=O)OC)[C@H](OC(C)=O)[C@]5(CC)C=CCN6CC[C@]43[C@@H]65)C2)C1 [VINBLASTINE]
A549 [1]
  IC50: 21 nM

## COc1ccc(C(C)(O)c2ncnc3cc(C)ccc23)cc1 (centres undefined)
A549 [1]
  IC50: > 25000 nM

## COc1ccc(C(C)(O)c2nc(-c3ccc(C(F)(F)F)cc3)nc3ccccc23)cc1 (centres undefined)
A549 [1]
  IC50: 1590 nM

## CNc1nc(C(C)(O)c2ccc(OC)cc2)c2ccccc2n1 (centres undefined)
A549 [1]
  IC50: 20 nM

## COc1ccc(C(C)(O)c2ncnc3c(OC)cccc23)cc1 (centres undefined)
A549 [1]
  IC50: 2100 nM

## COc1ccc(C(C)(O)c2nc(N3CCC(Cl)CC3)nc3ccccc23)cc1 (centres undefined)
A549 [1]
  IC50: 3670 nM

## C/C=C\c1nc(C(C)(O)c2ccc(OC)cc2)c2ccccc2n1 (centres undefined)
A549 [1]
  IC50: 380 nM

## COc1ccc(C(C)(O)c2ncnc3ccc(OC)cc23)cc1 (centres undefined)
A549 [1]
  IC50: 5160 nM

## COc1ccc(C(C)(O)c2nc(-c3ccc(C#N)s3)nc3ccccc23)cc1 (centres undefined)
A549 [1]
  IC50: 13 nM

## COc1ccc(C(C)(O)c2nc(-c3cn[nH]c3)nc3ccccc23)cc1 (centres undefined)
A549 [1]
  IC50: 254 nM

## COc1ccc(C(C)(O)c2nc(-c3cccnc3)nc3ccccc23)cc1 (centres undefined)
A549 [1]
  IC50: 60 nM

## COc1ccc(C(C)(O)c2nc(N3CCSC3)nc3ccccc23)cc1 (centres undefined)
A549 [1]
  IC50: 580 nM

## C=Cc1nc(C(C)(O)c2ccc(OC)cc2)c2ccccc2n1 (centres undefined)
A549 [1]
  IC50: 27 nM

## COc1ccc(C(C)(O)c2nc(-c3ccoc3)nc3ccccc23)cc1 (centres undefined)
HeLa [2]
  Activity: 50%
HeLa [3]
  Activity: 52%
HeLa [4]
  Activity: 52%
A549 [1]
  IC50: 13 nM
HeLa [5]
  Activity: 50%
HeLa [6]
  Activity: 60%
HeLa [7]
  Activity: 0%
HeLa [8]
  Activity: 0%
HeLa [9]
  Activity: 67%
HeLa [10]
  Activity: 33%
HeLa [11]
  Activity: 43%
HeLa [12]
  Activity: 0%
HeLa [13]
  Activity: 0%
HCT-116 [14]
  inhibition in vivo at 10 mg/kg: 24.6%
HeLa [15]
  Activity: 0%
HCT-116 [16]
  TGI: Dose-dependent effect
HeLa [17]
  Activity: 0%
HeLa [18]
  Activity: 57%
HeLa [19]
  Activity: 0%
HCT-116 [20]
  inhibition in vivo at 20 mg/kg: 62.9%
HeLa [21]
  Activity: 44.2%
HeLa [22]
  Activity: 100%
HCT-116 [23]
  IC50: 13 nM
HeLa [24]
  Activity: 5.8%
HeLa [25]
  Activity: 0%

## COc1ccc(C(C)(O)c2nc(-c3cccs3)nc3ccccc23)cc1 (centres undefined)
A549 [1]
  IC50: 48 nM

## COc1ccc(C(C)(O)c2nc(-c3ccsc3C(C)=O)nc3ccccc23)cc1 (centres undefined)
A549 [1]
  IC50: 52 nM

## COc1ccc(C(C)(O)c2nc(N3CCC(F)CC3)nc3ccccc23)cc1 (centres undefined)
A549 [1]
  IC50: 760 nM

## COc1ccc(C(C)(O)c2nc(-n3cccc3)nc3ccccc23)cc1 (centres undefined)
A549 [1]
  IC50: 50 nM

## COc1ccc(C(C)(O)c2nc(-c3c(C)noc3C)nc3ccccc23)cc1 (centres undefined)
A549 [1]
  IC50: 59 nM

## COc1ccc(C(C)(O)c2nc(-c3coc(C=O)c3)nc3ccccc23)cc1 (centres undefined)
A549 [1]
  IC50: 1010 nM

## COc1ccc(C(C)(O)c2nc(-c3ccc(O)cc3)nc3ccccc23)cc1 (centres undefined)
A549 [1]
  IC50: 1410 nM

## COc1ccc(C(C)(O)c2nc(Br)nc3ccccc23)cc1 (centres undefined)
A549 [1]
  IC50: 50 nM

## COc1ccc(C(C)(O)c2nc(N3CCOCC3)nc3ccccc23)cc1 (centres undefined)
A549 [26]
  IC50: 140 nM
